Data reported in patent US10314307B2, “(S)-abscisic acid derivatives for improving plant stress tolerance” (Valent BioSciences Corporation, priority 2015, dated 2019).

How the values were obtained:
Type in all cases: in vivo
[1] = tested on: corn seed of a common inbred parental line; experiment: Corn plant emergence after seed treatment; settings: 20.5° C.
Description: Corn seed of a common inbred parental line were treated using standard seed treatment equipment with water (control), 40 μg, 80 μg or 160 μg/seed S-ABA, 10 μg, 20 μg, 40 μg or 80 μg/seed 3′-methyl-(S)-abscisic acid, or 10 μg, 20 μg, 40 μg or 80 μg/seed 3′-propargyl-(S)-abscisic acid. Post treatment, the seeds were planted in 12×3×2″ plastic boxes containing one kilogram of sieved, pre-moistened field soil. Fifty seeds were planted in each box at three centimeter depth and two replicate boxes per treatment at 20.5° C. under constant illumination. Two replications of the experiment were incubated under constant light in a 20.5° C. growth chamber. Emergence counts were recorded almost daily until seedling emergence had ceased (42 days). Daily counts were converted to proportions of the final emergence to estimate the median emergence time for each box.

soybean plants = experiment: Soybean drought tolerance (stomatal conductance)
Description: In this study, soybean plants were grown for 10 days under ambient lab temperature conditions and illumination of 150 umol m^2 s^−1 and a 16:8 photoperiod. At spraying, the primary leaves were fully expanded and the first trifoliate leaves were partially expanded. The plants were sprayed to dampness with solutions of water, S-ABA, 3′-methyl-(S)-abscisic acid, or 3′-propargyl-(S)-abscisic acid containing 0.025% (v/v) non-ionic surfactant. At times following spraying, the conductance of the primary leaves was measured using an AP4 porometer (Delta T Devices, Cambridge, UK) to evaluate the effect on stomatal conductance. A decrease in stomatal aperture, reflected in the conductance measures, is an immediate and direct effect of applied S-ABA. To simplify the data, the controls were always set to 100%. In Table 9, the effect of spray applications on the stomatal conductance was measured.

[2] = tested on: corn plants, commercial 111 day, central corn belt variety; experiment: Corn stomatal conductance; settings: for Average Stomatal Conductance (% of Control), 6 DAS: 6 days after spraying; for Average Stomatal Conductance (% of Control), 16 DAS: 16 days after spraying
Description: (§1) In this greenhouse experiment, foliar spray treatments containing 3′-methyl-(S)-abscisic acid, 3′-propargyl-(S)-abscisic acid or (S)-abscisic acid were applied to corn plants to evaluate their effect on gas exchange, as measured through stomatal conductance. Corn plants of a commercial, 111 day, central corn belt variety were grown in the greenhouse under optimal conditions for five weeks and were size-matched into ten groups of five plants. Using an aerosol sprayer, each group was sprayed to drip (25 milliliters per plant) with solutions containing a non-ionic surfactant (0.125%, v/v) and water (control), 2.5 mg, 7.5 mg or 25 mg/plant 3′-methyl-(S)-abscisic acid, or 2.5 mg, 7.5 mg or 25 mg/plant 3′-propargyl-(S)-abscisic acid, or 7.5 mg, 25 mg or 75 mg/plant (5)-ABA, respectively. After spraying, plants were returned to the greenhouse for the duration of the experiment. Stomatal conductance was measured using an AP4 porometer (Delta T Devices, Cambridge, UK) and the conductance for each plant was recorded at approximately the same time of day (˜10 AM) prior to treatment application as well as 1, 2, 5, 6, 9 and 16 days post-spraying.

[3] = tested on: corn plants, commercial 111 day, central corn belt variety; experiment: Corn plant leaf rolling assay and shoot fresh weight under drought; settings: for Shoot Fresh Weight, 15 DAS: 12 days drought then 3 days watering; for Average # of Rolled Leaves/Plant, 5 DAS / Average # of Rolled Leaves/Plant, 6 DAS / Average # of Rolled Leaves/Plant, 8 DAS: water withheld; for Average # of Rolled Leaves/Plant, 5 DAS: 5 days after spraying; for Average # of Rolled Leaves/Plant, 6 DAS: 6 days after spraying; for Average # of Rolled Leaves/Plant, 8 DAS: 8 days after spraying
Description: as §1, with “post-spraying. This study was conducted as described above with the following the exceptions. After spraying, plants were put back in the greenhouse and water was withheld for twelve days, simulating drought stress. The plants were then watered to saturation for three consecutive days before the plant shoots were cut at the soil surface and subsequently weighed in grams (fresh weight). Leaf-rolling data and fresh weight data were recorded for each plant following treatment application at the times specified below in Table 6.” for “post-spraying.”

[4] = foliar spray 300 mg/l, 0.3 mg/plant
[5] = foliar spray 1000 mg/l, 1.0 mg/plant
[6] = foliar spray 300 ppm or 7.5 mg/plant
[7] = foliar spray 1000 ppm or 25 mg/plant
[8] = foliar spray 3000 ppm or 75 mg/plant

CC1=CC(=O)CC(C)(C)[C@@]1(O)/C=C/C(C)=C/C(=O)O [S-ABA, (S)-abscisic acid]
Delay in Median Emergence Time Compared to Control ([1]; seed treatment 40 μg/seed): 5.6 days
Median Time to Emergence ([1]; seed treatment 40 μg/seed): 10.5 days
Delay in Median Emergence Time Compared to Control ([1]; seed treatment 80 μg/seed): 8.2 days
Median Time to Emergence ([1]; seed treatment 80 μg/seed): 13.0 days
Delay in Median Emergence Time Compared to Control ([1]; seed treatment 160 μg/seed): 9.7 days
Median Time to Emergence ([1]; seed treatment 160 μg/seed): 14.6 days
Reduction in stomatal conductance at 1 day post spraying (soybean plants; 300 mg/l foliar spray): 58%
Time of 50% recovery of the control conductance (soybean plants; 300 mg/l foliar spray): ≤ 2 days
Time of greater than 50% recovery of the control conductance (soybean plants; 1000 mg/l foliar spray): 5 days
Percent Conductance (stomatal conductance, control = 100%), Day 1 (soybean plants; [4]): 42%
Percent Conductance (stomatal conductance, control = 100%), Day 2 (soybean plants; [4]): 56%
Percent Conductance (stomatal conductance, control = 100%), Day 5 (soybean plants; [4]): 80%
Percent Conductance (stomatal conductance, control = 100%), Day 6 (soybean plants; [4]): 108%
Percent Conductance (stomatal conductance, control = 100%), Day 7 (soybean plants; [4]): 122%
Percent Conductance (stomatal conductance, control = 100%), Day 1 (soybean plants; [5]): 27%
Percent Conductance (stomatal conductance, control = 100%), Day 2 (soybean plants; [5]): 32%
Percent Conductance (stomatal conductance, control = 100%), Day 5 (soybean plants; [5]): 58%
Percent Conductance (stomatal conductance, control = 100%), Day 6 (soybean plants; [5]): 80%
Percent Conductance (stomatal conductance, control = 100%), Day 7 (soybean plants; [5]): 118%
Average Stomatal Conductance (% of Control), 6 DAS [2, 6]: 88.5 % of Control
Average Stomatal Conductance (% of Control), 16 DAS [2, 6]: 89.3 % of Control
Average Stomatal Conductance (% of Control), 6 DAS [2, 7]: 83.7 % of Control
Average Stomatal Conductance (% of Control), 16 DAS [2, 7]: 88.0 % of Control
Average Stomatal Conductance (% of Control), 6 DAS [2, 8]: 61.3 % of Control
Average Stomatal Conductance (% of Control), 16 DAS [2, 8]: 62.5 % of Control
Shoot Fresh Weight, 15 DAS ([3]; 300 ppm or 7.5 mg/plant): 258.9 grams
Average # of Rolled Leaves/Plant, 5 DAS ([3]; 300 ppm or 7.5 mg/plant): 2.8
Average # of Rolled Leaves/Plant, 6 DAS ([3]; 300 ppm or 7.5 mg/plant): 2.6
Average # of Rolled Leaves/Plant, 8 DAS ([3]; 300 ppm or 7.5 mg/plant): 8.4
Shoot Fresh Weight, 15 DAS ([3]; 1000 ppm or 25 mg/plant): 282.5 grams
Average # of Rolled Leaves/Plant, 5 DAS ([3]; 1000 ppm or 25 mg/plant): 1.2
Average # of Rolled Leaves/Plant, 6 DAS ([3]; 1000 ppm or 25 mg/plant): 3.0
Average # of Rolled Leaves/Plant, 8 DAS ([3]; 1000 ppm or 25 mg/plant): 8.8
Shoot Fresh Weight, 15 DAS ([3]; 3000 ppm or 75 mg/plant): 301.7 grams
Average # of Rolled Leaves/Plant, 5 DAS ([3]; 3000 ppm or 75 mg/plant): 0.0
Average # of Rolled Leaves/Plant, 6 DAS ([3]; 3000 ppm or 75 mg/plant): 0.2
Average # of Rolled Leaves/Plant, 8 DAS ([3]; 3000 ppm or 75 mg/plant): 7.2
Effectiveness at reducing leaf rolling ([3]; S-ABA 75 mg/plant compared with 25 mg of the derivatives): as effective at reducing leaf rolling as 25 mg of 3′-methyl-(S)-abscisic acid, or 3′-propargyl-(S)-abscisic acid
